Data on 16 compounds can be found in PubChem BioAssay (NCI).

What all share (assay): growth of human tumour cells (NCI), 48 h
Experiment [1] relates to A498 renal.
The subject of experiment [2] is HT29 colon.
The subject of experiment [3] is IGROV1 ovarian.
The test system of experiment [4] is RXF 393 renal.
For experiment [5], the system named is SK-MEL-2 melanoma.
Experiment [6] deals with SK-MEL-5 melanoma.
Experiment [7] deals with SN12C renal.
In experiment [8] the test system is SNB-19 CNS.
In experiment [9] the test system is U251 CNS.

Structures are written as SMILES.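 Protocol summary: plate cells (96-well), add compound at 5 concentrations, incubate 48 h, interpolate endpoints linearly. Definition used: TGI = concentration required for complete inhibition of growth.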 Where a SMILES comes first, the peptide text is derived from it. [ ]: non-standard residue; d: D form. Phe(4-Cl) = N[CH](Cc1ccc(Cl)cc1)C(=O)O Bounds are passed on as bounds.

For the compound `CC(C)(C)OC(=O)Cc1ccc2c(ccn2Cc2ccccc2)c1`, the TGI is over 100 µM in experiment [1]; 36.4 µM in experiment [2]; over 100 µM in [3]; over 100 µM in [4]; over 100 µM in experiment [5]; over 100 µM in experiment [6]. For the same compound, the TGI in [7], in experiment [8] and in [9] was over 100 µM each time.

Consider `CC(O)C(NC(=O)C(Cc1ccccc1)NC(=O)C(NC(=O)C(CCCCN)NC(=O)C(Cc1c[nH]c2ccccc12)NC(=O)C(Cc1ccc(O)cc1)NC(=O)C(Cc1ccc(Cl)cc1)NC(=O)C(N)Cc1ccccc1)C(C)O)C(N)=O` (configuration not stated) (H-F[Phe(4-Cl)]YWKTFT-NH2; configuration not given here), for which the TGI in experiment [1] is 34 µM; in experiment [2], 62.8 µM; in [3], 44.8 µM; in experiment [4], 30.3 µM; in experiment [5] it was 39.3 µM; in experiment [7], over 100 µM. For the same compound, the TGI worked out at 34.1 µM in experiment [8] and 35.8 µM in experiment [9].

Turning to `NC1=NN(c2ccccc2)C(=O)C1C(=O)CCC(=O)Nc1cccc(C(F)(F)F)c1` (configuration not stated), the TGI in experiment [2], in experiment [3], in [4], in experiment [5], in experiment [6] and in [7] was over 100 µM in each case. Besides, the TGI in experiment [8] and in experiment [9] was over 100 µM in each case.

On to `CCOC(=O)CN=c1nc(SC)sc2c(C(=O)OCC)nc(Sc3ccccc3)n12`, for which the TGI in [2], in experiment [3], in experiment [5], in experiment [6] and in experiment [7] was over 100 µM each time.

Turning to `CCOC1=NC(=O)CC(c2ccccc2)S1` (configuration not stated), the TGI in experiment [1], in [2], in [3], in [4], in [5] and in experiment [6] was over 100 µM in each case. In addition, the TGI in [7], in experiment [8] and in [9] was over 100 µM in each case.

Take `Cc1cccc(NC(=O)C(=O)Cc2nc3ccccc3[nH]c2=O)c1C`: the TGI in [1], in experiment [2], in experiment [3], in experiment [4], in [6] and in experiment [7] was over 100 µM throughout. Further, the TGI in experiment [8] and in [9] was over 100 µM each time.

Consider `O=C(O)CN(c1ccccc1)S(=O)(=O)c1ccccc1[N+](=O)[O-]`, for which the TGI in [1], in experiment [2], in [3], in experiment [4], in experiment [5] and in experiment [6] was over 100 µM in each case. Moreover, the TGI in [7], in experiment [8] and in experiment [9] was over 100 µM throughout.

As for `Cn1cc(C(=O)c2ccccc2)ccc1=O`, the TGI in experiment [2], in experiment [3], in [4], in [5], in experiment [6] and in experiment [7] was over 100 µM in each case. Moreover, the TGI in experiment [8] and in experiment [9] was over 100 µM in each case.

Regarding `O=c1cccccc1NCCCNc1cccccc1=O`, the TGI in experiment [2] was over 100 µM; in experiment [3], over 100 µM; in experiment [4], over 100 µM; in [5], over 100 µM; in [7] it was 32.3 µM; in experiment [8], over 100 µM. In [9], the TGI is over 100 µM.

As to `CCOC(=O)NC(=O)c1cn(CCOCCOC(=O)NCCCCCCNC(=O)OCCOCCn2cc(C(=O)NC(=O)OCC)c(=O)[nH]c2=O)c(=O)[nH]c1=O`, the TGI in experiment [1], in experiment [2], in experiment [3], in experiment [4], in experiment [5] and in [6] was over 100 µM throughout. Also, the TGI in experiment [7], in experiment [8] and in experiment [9] was over 100 µM in each case.

Take `CCCCCCCCCCCCCC1CCC(CC)N1` (configuration not stated): the TGI in [1] worked out at 36.7 µM; in [2], 15.1 µM; in experiment [3], 36.1 µM; in experiment [4], 33 µM; in experiment [5] it was 36.4 µM; in experiment [6], 31.8 µM. Moreover, the TGI in [7] worked out at 23.4 µM; in experiment [8], 30.7 µM; in experiment [9] it was 18 µM.

For the compound `Cc1cc(C)nc(NS(=O)(=O)c2ccc(Nc3c4ccccc4nc4c(C(=O)Nc5ccc(S(=O)(=O)Nc6cc(C)on6)cc5)cccc34)cc2)n1`, the TGI in [1] stood at 51.5 µM; in experiment [2], 35.5 µM; in [3] it was 77.1 µM; in [4] it was 38.2 µM; in experiment [6], 36.3 µM; in experiment [7] it was 66.5 µM. The figures for the TGI in experiment [8] and in experiment [9] were 52.1 µM and 41.4 µM, respectively.

`Cc1ccccc1N(CCC#N)C1=NN(C(=O)CC(=O)Nc2ccccc2)C(c2ccccc2)C1` (configuration not stated): the TGI in experiment [2], in [3], in experiment [4], in experiment [5], in experiment [6] and in experiment [7] was over 100 µM each time. The TGI in [8] and in experiment [9] was over 100 µM in each case.

As to `COC(=O)C1=NC(=S)NC(c2ccccc2)C1c1nc2ccccc2s1` (configuration not stated), the TGI in experiment [1], in experiment [2], in experiment [3], in [4], in [5] and in experiment [6] was over 100 µM in each case. The TGI in experiment [7], in experiment [8] and in [9] was over 100 µM throughout.

`COc1ccc2c(c1)CCC1C3(CCCC21C)OCCO3` (configuration not stated): the TGI in experiment [1] amounted to 82.6 µM; in experiment [2] it was 33.5 µM; in [3] it was 79.4 µM; in experiment [4], 31.1 µM; in [5], 23.5 µM; in experiment [6], 31.1 µM. The TGI in [7] is 30.5 µM; in experiment [8], over 100 µM; in experiment [9] it was 29.4 µM.

With `Cc1ccc(Nc2nc3c(s2)C(=O)c2ccccc2C3=O)c(C)c1`, the TGI in experiment [1] was over 100 µM; in [2], 48.3 µM; in experiment [3] it was 33.1 µM; in experiment [4], 29.6 µM; in [5] it was 28.2 µM; in experiment [6], 28.2 µM. The TGI in experiment [7] is 31.1 µM; in experiment [8] it was 27.7 µM; in experiment [9], 42.5 µM.
